# Measured values published in patent US7238689B2, “Isoxazoline derivative and herbicide comprising the same as active ingredient” (Ihara Chemical Industry Co., Ltd., priority 2001, dated 2007).
# What was measured:
# Assay type in all cases: in vivo
# Parameters in all cases: scale not given here
# [1] = system: Echinochloa crus-galli (L.) Beauv. var. crusgalli; test: Herbicidal effect by upland field soil treatment; conditions: active ingredient 1000 g/ha, examined at 21st day from treatment
# Source text: (§1) An upland field soil was filled in a plastic pot of 80 cm^2. Seeds of Echinochloa crus-galli (L.) Beauv. var. crusgalli and Setaria viridis (L.) Beauv. were sowed, followed by covering with the same soil. […] Then, breeding was made in a greenhouse, and the herbicidal effect of each wettable powder was examined at the 21st day from the treatment in accordance with the standard shown in Table 21.
# [2] = system: Setaria viridis (L.) Beauv.; test: Herbicidal effect by upland field soil treatment; conditions: active ingredient 1000 g/ha, examined at 21st day from treatment
# Source text: as §1
# [3] = system: Monochoria vaginalis (Murm. f.) Presl var. plantaginea (Roxb.) Solms-Laub.; test: Herbicidal effect by paddy field soil treatment; conditions: wettable powder, active ingredient 1000 g/ha, examined at the 21st day from the treatment
# Method: (§2) A paddy field soil was filled in a plastic pot of 100 cm^2 and subjected to puddling. Then, seeds of Echinochloa oryzicola Vasing and Monochoria vaginalis (Murm. f.) Presl var. plantaginea (Roxb.) Solms-Laub. were sowed and water was filled in a depth of 3 cm. Next day, wettable powders produced in accordance with the Formulation 1 were diluted with water and dropped on the water surface. The application amount of each wettable powder was 1,000 g per 1 hectare in terms of the active ingredient. Then, breeding was made in a greenhouse, and the herbicidal effect of each wettable powder was examined at the 21st day from the treatment in accordance with the standard shown in Table 21.
# [4] = system: Echinochloa oryzicola Vasing; test: Herbicidal effect by paddy field soil treatment; conditions: wettable powder, active ingredient 1000 g/ha, examined at the 21st day from the treatment
# Method: as §2
Structure (SMILES),"herbicidal effect (index per standard of Table 21), Echinochloa curs-galli (L.) Beauv. Var. crus-galli [1]","herbicidal effect (index per standard of Table 21), Setaria viridis (L.) Beauv. [2]","Herbicidal effect index, Monochoria vaginalis (Burm. F.) Presl var. plantaginea (Roxb.) Solms-Laub. [3]","Herbicidal effect index, Echinochloa oryzicola Vasing [4]"
CC1(C)CC(S(=O)(=O)Cc2c(C(F)(F)F)nn(CC(F)F)c2Cl)=NO1 [3-0114],5,5,5,5
Cn1nc(C(F)(F)F)c(CS(=O)(=O)C2=NOC(C)(C)C2)c1OC(F)F [3-0054],5,5,5,5
CC1(C)CC(S(=O)(=O)Cc2nc3ccccc3s2)=NO1 [10-0006],5,4,5,5
Cn1nc(C(F)(F)F)c(CS(=O)(=O)C2=NOC(C)(C)C2)c1OCc1ccccc1 [3-0059],5,5,5,5
CC1(C)CC(S(=O)(=O)Cc2sc3ccccc3c2Cl)=NO1 [10-0003],5,5,5,5
Cc1cc2cccc(CS(=O)(=O)C3=NOC(C)(C)C3)c2o1 [10-0013],5,5,5,5
CCOC(=O)Cn1nc(Cl)c(CS(=O)(=O)C2=NOC(C)(C)C2)c1C(F)(F)F [3-0137],5,5,5,5
CC1(C)CC(S(=O)(=O)Cc2oc3ccccc3c2Br)=NO1 [10-0014],5,5,5,5
CC1(C)CC(S(=O)(=O)Cc2c(Cl)nn(Cc3ccccc3)c2C(F)(F)F)=NO1 [3-0088],5,4,5,5
CCOCn1nc(Cl)c(CS(=O)(=O)C2=NOC(C)(C)C2)c1C(F)(F)F [3-0121],5,5,5,5
COCCn1nc(C(F)(F)F)c(CS(=O)(=O)C2=NOC(C)(C)C2)c1Cl [3-0124],5,5,5,5
CC1(C)CC(S(=O)(=O)Cc2ccc(Cl)s2)=NO1 [1-0005],5,5,5,5
Cn1ncc2cccc(CS(=O)(=O)C3=NOC(C)(C)C3)c21 [10-0016],5,4,5,5
CC1(C)CC(S(=O)(=O)Cc2nc3ccccc3o2)=NO1 [10-0009],5,5,5,5
Cn1nc(C(F)(F)F)c(CS(=O)(=O)C2=NOC(C)(C)C2)c1OC(C)(C)C [3-0047],5,5,5,5
COCCn1nc(Cl)c(CS(=O)(=O)C2=NOC(C)(C)C2)c1C(F)(F)F [3-0125],5,5,5,5
CC1(C)CC(S(=O)(=O)Cc2cc(Cl)sc2Cl)=NO1 [2-0005],5,5,5,5
CNC(=O)c1c(Cl)sc(Cl)c1CS(=O)(=O)C1=NOC(C)(C)C1 [2-0012],5,5,5,5
CC1(C)CC(S(=O)(=O)Cc2cc3ccccc3o2)=NO1 [10-0012],5,4,5,5
Cn1ncc2c(CS(=O)(=O)C3=NOC(C)(C)C3)cccc21 [10-0005],5,5,5,5
CC1(C)CC(S(=O)(=O)Cc2c(C(F)(F)F)nn(CC#N)c2Cl)=NO1 [3-0134],5,5,5,5
CCOc1c(C)nn(-c2ccccc2)c1CS(=O)(=O)C1=NOC(C)(C)C1 [5-0005],5,4,5,5
CC1(C)CC(S(=O)(=O)Cc2c(C(F)(F)F)n[nH]c2Cl)=NO1 [3-0034],5,5,5,5
CSCn1nc(C(F)(F)F)c(CS(=O)(=O)C2=NOC(C)(C)C2)c1Cl [3-0128],5,5,5,5
CC1(C)CC(S(=O)(=O)Cc2c(C(F)(F)F)nn(CC3CCCC3)c2Cl)=NO1 [3-0100],–,–,5,5
